Experimental data: ChEMBL document CHEMBL4813979
One block for each molecule: values may come before it. Calls of active or inactive are those of the source. The calls are words filed in the database; no cut-off is given here.

Columns and labels:
Mus musculus [1] = assay: Anti-colitis activity against DSS-induced BALB/c mouse model of subchronic relapsing colitis assessed as reduction in fecal blood at 100 mg/kg/day, ip administered on days 1 and 3 of second week during 2 weeks DSS challenge and measured at the end of 2nd week; type: functional, organism-based; conditions: time 1.0 weeks
Mus musculus [2] = assay: Anti-colitis activity against DSS-induced BALB/c mouse model of subchronic relapsing colitis assessed as effect on colon length at 100 mg/kg/day, ip administered on days 1 and 3 of second week during 2 weeks DSS challenge and measured at the end of 2nd week; type: functional, organism-based; conditions: time 1.0 weeks
Mus musculus [3] = assay: Anti-colitis activity against DSS-induced BALB/c mouse model of subchronic relapsing colitis assessed as increase in softening of feces at 100 mg/kg/day, ip administered on days 1 and 3 of second week during 2 weeks DSS challenge and measured at the end of 2nd week; type: functional, organism-based; conditions: time 1.0 weeks
Mus musculus [4] = assay: Anti-colitis activity against DSS-induced BALB/c mouse model of subchronic relapsing colitis assessed as increase in body weight at 100 mg/kg/day, ip administered on days 1 and 3 of second week during 2 weeks DSS challenge and measured at the end of 2nd week; type: functional, organism-based; conditions: time 1.0 weeks
[5] = molecular target: Glycogen synthase kinase-3 beta (Mus musculus) (UniProt Q9WV60); assay: Inhibition of GSK3-beta in mouse J774.1 cells assessed as reduction in LPS/IFN-gamma-induced NF-kappaB expression at 10 uM measured within 15 mins by Western blot analysis; type: cell-based
Sequence of Glycogen synthase kinase-3 beta (Mus musculus) (Q9WV60 whole entry, looked up): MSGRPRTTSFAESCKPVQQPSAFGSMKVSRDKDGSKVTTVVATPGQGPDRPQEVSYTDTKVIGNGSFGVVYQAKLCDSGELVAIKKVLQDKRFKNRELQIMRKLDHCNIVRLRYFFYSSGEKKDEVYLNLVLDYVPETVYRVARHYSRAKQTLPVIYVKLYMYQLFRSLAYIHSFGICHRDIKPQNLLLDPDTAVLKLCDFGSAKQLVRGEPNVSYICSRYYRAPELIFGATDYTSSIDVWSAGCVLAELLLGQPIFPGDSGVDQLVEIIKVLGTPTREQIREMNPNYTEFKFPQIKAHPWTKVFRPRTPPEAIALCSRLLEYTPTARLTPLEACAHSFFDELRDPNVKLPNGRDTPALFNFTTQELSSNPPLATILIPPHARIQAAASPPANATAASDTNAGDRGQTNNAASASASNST

Mus musculus [6] = assay: Anti-colitis activity against DSS-induced BALB/c mouse model of subchronic relapsing colitis assessed as increase in body weight at 100 mg/kg/day, po administered for 7 days in second week during 2 weeks DSS challenge and measured at the end of 2nd week; type: functional, organism-based; conditions: time 7.0 day
Mus musculus [7] = assay: Anti-colitis activity against DSS-induced BALB/c mouse model of subchronic relapsing colitis assessed as effect on colon length at 100 mg/kg/day, po administered for 7 days in second week during 2 weeks DSS challenge and measured at the end of 2nd week; type: functional, organism-based; conditions: time 7.0 day
Mus musculus [8] = assay: Anti-colitis activity against DSS-induced BALB/c mouse model of subchronic relapsing colitis assessed as decrease in colon weight to length ratio at 100 mg/kg/day, po administered for 7 days in second week during 2 weeks DSS challenge and measured at the end of 2nd week; type: functional, organism-based; conditions: time 7.0 day
Mus musculus [9] = assay: Anti-colitis activity against DSS-induced BALB/c mouse model of subchronic relapsing colitis assessed as reduction in fecal blood at 100 mg/kg/day, po administered for 7 days in second week during 2 weeks DSS challenge and measured at the end of 2nd week; type: functional, organism-based; conditions: time 7.0 day
Mus musculus [10] = assay: Anti-colitis activity against DSS-induced BALB/c mouse model of subchronic relapsing colitis assessed as increase in softening of feces at 100 mg/kg/day, po administered for 7 days in second week during 2 weeks DSS challenge and measured at the end of 2nd week; type: functional, organism-based; conditions: time 7.0 day

Structure (SMILES): S=C(S)N1CCCC1
Activity (Mus musculus [1]): Active
Activity (Mus musculus [2]): inactive
Activity (Mus musculus [3]): Active
Activity (Mus musculus [4]): Active

inhibition [5]: Active
Structure (SMILES): C[S+]([O-])CCCCCCN=C=S (stereo not given)

Structure (SMILES): O=C(O)c1cc(/N=N/c2ccc(S(=O)(=O)Nc3ccccn3)cc2)ccc1O
Activity (Mus musculus [6]): inactive
Activity (Mus musculus [7]): inactive
Activity (Mus musculus [8]): Active
Activity (Mus musculus [9]): Active
Activity (Mus musculus [10]): Active
